The test system of the data set is rabbit corneal epithelial cell line SIRC. The experiment in a line: Evaluation of cytotoxicity of prepared alginic acid (Cell Counting Kit-8 viable cell detection). In kind it is cell-based. The procedure:
The test for toxicity of the alginic acid prepared above (Example 1 and Comparative Examples 1 and 2) to cells was carried out. First, an alginic acid solution was prepared by dissolving each alginic acid to a concentration of 0.2 or 2.0% (w/v) in a cell culture medium of medium 199 (GIBCO) supplemented with 10% (v/v) fetal bovine serum (Daiichi Kagaku Yakuhin). Then, rabbit corneal epithelial cell line SIRC (ATCC number: CCL-60) was plated at 2.0×10^5 cells/well in 48-well microtiter plate (Corning), and alginic acid solution prepared above was added to obtain a final concentration of 0.1 or 1.0% (w/v) of alginic acid, and the cells were subsequently cultured under the condition of 37° C., 5% CO2 and 90% relative humidity. […] After 1 hour, the absorbance (450 nm) of the dye developed by reacting with the viable cells was measured using a spectrophotometer (Thermo Electron). With the observed value of the absorbance, cell viability was calculated in the following equation, and the cytotoxicity of each alginic acid was evaluated.
Cell viability(%)=100×(absorbance of the group in which each alginic acid solution was added−absorbance of the medium containing a reagent for viable cell detection)/(absorbance of the control group−absorbance of the medium containing a reagent for viable cell detection) Equation 5

As to alginic acid [Comparative Example 2], the Cell viability entry is recorded as “about 5%”; the “microscopic observation of cells” value is “lost their adhesive capacity and floated”.

The record behind these values is patent US20100069323A1, “COMPOSITION FOR APPLICATION TO SKIN OR MUCOSA” (priority 2006, published 2010).
